Patent publication US7420051B2, “Synthetic process for the manufacture of an ecteinaschidin compound” (Pharma Mar, S.A., priority 2000, dated 2008)

How the values were obtained:
Type in all cases: cell-based
[1] = system: DU-145; experiment: Cytotoxic activity screening, DU-145 cells
[2] = system: P-388 (suspension culture of a lymphoid neoplasm from DBA/2 mouse); experiment: Cytotoxic activity screening, P-388 cells; conditions: three days of incubation, approximate IC50
Procedure: (§1) Cell Cultures. Cells were maintained in logarithmic phase of growth in Eagle's Minimum Essential Medium, with Earle's Balanced Salts, with 2.0 mM L-glutamine, with non-essential amino acids, without sodium bicarbonate (EMEM/neaa); supplemented with 10% Fetal Calf Serum (FCS), 10^−2 M sodium bicarbonate and 0.1 g/l penicillin-G+streptomycin sulfate.
(§2) A simple screening procedure has been carried out to determine and compare the antitumour activity of these compounds, using an adapted form of the method described by Bergeron et al (1984). The tumour cell line employed have been P-388 (suspension culture of a lymphoid neoplasm from DBA/2 mouse), A-549 (monolayer culture of a human lung carcinoma), HT-29 (monolayer culture of a human colon carcinoma) and MEL-28 (monolayer culture of a human melanoma).
P-388 cell were seeded into 16 mm wells at 1×10^4 cells per well in 1 ml aliquots of MEM 5FCS containing the indicated concentration of drug. A separate set of cultures without drug was seeded as control growth to ensure that cells remained in exponential phase of growth. All determinations were carried out in duplicate.

[3] = system: A-549 (monolayer culture of a human lung carcinoma); experiment: Cytotoxic activity screening, A-549 cells; conditions: three days of incubation, Crystal Violet, approximate IC50
Procedure: as §1, §2
(§3) A-549, HT-29 and MEL-28 were seeded into 16 mm wells at 2×10^4 cells per well in 1 ml aliquots of MEM 10FCS containing the indicated concentration of drug. A separate set of cultures without drug was seeded as control growth to ensure that cells remained in exponential phase of growth. All determinations were carried out in duplicate. After three days of incubation at 37° C., 10% CO2 in a 98% humid atmosphere, the wells were stained with 0.1% Crystal Violet. An approximately IC50 was determined by comparing the growth in wells with drug to the growth in wells control.

[4] = system: MEL-28 (monolayer culture of a human melanoma); experiment: Cytotoxic activity screening, MEL-28 cells; conditions: SK-MEL-28, 72 h, three days of incubation, Crystal Violet, approximate IC50
Procedure: as §1, §2, §3

[5] = system: HT-29 (monolayer culture of a human colon carcinoma); experiment: Cytotoxic activity screening, HT-29 cells; conditions: three days of incubation, Crystal Violet, approximate IC50
Procedure: as §1, §2, §3

[6] = system: CV-1; experiment: Cytotoxic activity screening, CV-1 cells; conditions: Cercopithecidae
[7] = Homo sapiens, DU-145, DU-145 cells

Measured: IC50

COc1c(C)cc2c(c1O)[C@@H]1C3Cc4c(OC(C)=O)c(C)c5c(c4[C@H](CNC(=O)[C@@H](C)NC(=O)CC(C)C)N3[C@@H](C#N)[C@H](C2)N1C)OCO5 (some centres unmarked)
0.0001 µM: [1]; [7] | [2]; Mus musculus, P388, 72 h | [3]; Homo sapiens, A549, 72 h | [4] | [5]; Homo sapiens, HT-29, 72 h

COc1c(C)cc2c(c1O)[C@@H]1C3Cc4c(OC(C)=O)c(C)c5c(c4[C@H](CNC(=O)[C@@H](C)NC(=O)/C=C/c4cccc(C(F)(F)F)c4)N3[C@@H](C#N)[C@H](C2)N1C)OCO5 (some centres unmarked)
0.001 µM: [1]; [7] | [2]; Mus musculus, P388, 72 h | [3]; Homo sapiens, A549, 72 h | [4] | [5]; Homo sapiens, HT-29, 72 h

COc1c(C)cc2c(c1O)[C@@H]1C3Cc4c(OC(C)=O)c(C)c5c(c4[C@H](CNC(=O)[C@H](C)NC(=O)C(F)(F)F)N3[C@@H](C#N)[C@H](C2)N1C)OCO5 (some centres unmarked)
0.0001 µM: [1]; [7] | [2]; Mus musculus, P388, 72 h | [3]; Homo sapiens, A549, 72 h | [4] | [5]; Homo sapiens, HT-29, 72 h

C=CCOc1c(C)c2c(c3c1CC1[C@H]4c5c(cc(C)c(OC)c5O)C[C@@H]([C@H](C#N)N1[C@H]3CNC(=O)[C@H](C)NC(=O)C(F)(F)F)N4C)OCO2 (some centres unmarked)
0.001 µM: [1]; [7] | [2]; Mus musculus, P388, 72 h | [3]; Homo sapiens, A549, 72 h | [4] | [5]; Homo sapiens, HT-29, 72 h

COc1c(C)cc2c(c1O)[C@@H]1C3Cc4c(O)c(C)c5c(c4[C@H](CNC(=O)[C@H](C)NC(=O)C(F)(F)F)N3[C@@H](C#N)[C@H](C2)N1C)OCO5 (some centres unmarked)
0.01 µM: [1]; [7] | [2]; Mus musculus, P388, 72 h | [3]; Homo sapiens, A549, 72 h | [4] | [5]; Homo sapiens, HT-29, 72 h

COc1c(C)cc2c(c1O)[C@@H]1C3Cc4c(O)c(C)c5c(c4[C@H](CNC(=O)[C@H](C)N)N3[C@@H](C#N)[C@H](C2)N1C)OCO5 (some centres unmarked)
0.18 µM: [2]; Mus musculus, P388, 72 h | [5]; Homo sapiens, HT-29, 72 h
0.8 µM: [4]
0.9 µM: [1]; [7] | [3]; Homo sapiens, A549, 72 h

COc1c(C)cc2c(c1O)[C@@H]1C3Cc4c(O)c(C)c5c(c4[C@H](CNC(=O)[C@H](C)NC(=S)Nc4ccccc4)N3[C@@H](C#N)[C@H](C2)N1C)OCO5 (some centres unmarked)
0.14 µM: [1]; [7] | [2]; Mus musculus, P388, 72 h | [3]; Homo sapiens, A549, 72 h | [4] | [5]; Homo sapiens, HT-29, 72 h

COc1c(C)cc2c(c1O)[C@@H]1C3Cc4c(OC(C)=O)c(C)c5c(c4[C@H](CNC(=O)[C@H](C)NC(=O)/C=C/c4ccccc4)N3[C@@H](C#N)[C@H](C2)N1C)OCO5 (some centres unmarked)
0.0005 µM: [1]; [7] | [5]; Homo sapiens, HT-29, 72 h
0.001 µM: [2]; Mus musculus, P388, 72 h | [3]; Homo sapiens, A549, 72 h | [4]

CCCC(=O)N[C@H](C)C(=O)NC[C@H]1c2c(c(OC(C)=O)c(C)c3c2OCO3)CC2[C@H]3c4c(cc(C)c(OC)c4O)C[C@@H]([C@H](C#N)N21)N3C (some centres unmarked)
0.0005 µM: [4] | [5]; Homo sapiens, HT-29, 72 h
0.001 µM: [1]; [7] | [2]; Mus musculus, P388, 72 h | [3]; Homo sapiens, A549, 72 h

C/C=C(\OC(C)=O)C1=C(C2=COCO2)[C@H](CNC(=O)/C=C/c2ccccc2)N2C(C1)[C@H]1c3c(cc(C)c(OC)c3O)C[C@@H]([C@@H]2C#N)N1C (some centres unmarked)
0.0001 µM: [1]; [7] | [2]; Mus musculus, P388, 72 h | [3]; Homo sapiens, A549, 72 h | [4] | [5]; Homo sapiens, HT-29, 72 h

COc1c(C)cc2c(c1O)[C@@H]1C3Cc4c(OC(C)=O)c(C)c5c(c4[C@H](CNC(=O)[C@H](C)NC(=O)CCCl)N3[C@@H](C#N)[C@H](C2)N1C)OCO5 (some centres unmarked)
0.001 µM: [1]; [7] | [2]; Mus musculus, P388, 72 h | [3]; Homo sapiens, A549, 72 h | [4] | [5]; Homo sapiens, HT-29, 72 h

CCCC(=O)NC[C@H]1c2c(c(OC(C)=O)c(C)c3c2OCO3)CC2[C@H]3c4c(cc(C)c(OC)c4O)C[C@@H]([C@H](C#N)N21)N3C (some centres unmarked)
0.0005 µM: [1]; [7] | [3]; Homo sapiens, A549, 72 h
0.0001 µM: [2]; Mus musculus, P388, 72 h | [4] | [5]; Homo sapiens, HT-29, 72 h

COc1c(C)cc2c(c1O)[C@@H]1C3Cc4c(OC(C)=O)c(C)c5c(c4[C@H](CNC(=O)/C=C/c4cccc(C(F)(F)F)c4)N3[C@@H](O)[C@H](C2)N1C)OCO5 (some centres unmarked)
0.0001 µM: [1]; [7] | [2]; Mus musculus, P388, 72 h | [3]; Homo sapiens, A549, 72 h | [4] | [5]; Homo sapiens, HT-29, 72 h

COc1c(C)cc2c(c1O)[C@@H]1C3Cc4c(OC(C)=O)c(C)c5c(c4[C@H](CNC(=O)[C@H](C)NC(=O)C(F)(F)F)N3[C@@H](O)[C@H](C2)N1C)OCO5 (some centres unmarked)
0.0001 µM: [1]; [7] | [2]; Mus musculus, P388, 72 h | [3]; Homo sapiens, A549, 72 h | [4] | [5]; Homo sapiens, HT-29, 72 h

C=CCOc1c(C)c2c(c3c1CC1[C@H]4c5c(cc(C)c(OC)c5OCOC)C[C@@H]([C@H](C#N)N1[C@H]3CN)N4C)OCO2 (some centres unmarked) [drawing 80]
1.8 µM: [6]
0.18 µM: [2]; Mus musculus, P388, 72 h

C=CCOc1c(C)c2c(c3c1CC1[C@H]4c5c(cc(C)c(OC)c5OCOC)C[C@@H]([C@H](C#N)N1[C@H]3CN)N4C)OCO2 (some centres unmarked) [drawing 81]
0.2 µM: [1]; DU-145 cells | [2] | [3] | [4] | [5]
